Experimental data published in patent US6855812B2, “P-glycoproteins and uses thereof” (Becton, Dickinson and Company, priority 2001, dated 2005).

Tested on: rhesus monkey PGP
Assay: Polarization of vinblastine transport in Transwells, rhesus monkey PGP transfected LLC-PK1 cell monolayers
Settings: PGP transfected LLC-PK1 cells, compared with control cells; vinblastine 0.1 μM
Description: Rhesus monkey PGP cDNA (SEQ ID NO:1) is introduced into a clonal population of LLC-PK1 cells in a vector that confers resistance to hygromycin B. LLC-PK1 cells are obtained from the American Type Culture Collections and are propagated in Medium 199 supplemented to 7% with fetal bovine serum. LLC-PK1 cells are recloned prior to transfection in order to assure homogeneity of the cell population. Briefly, rhesus monkey PGP cDNA is incorporated into the p222CMV vector. […] The PGP cDNA is under the control of the cytomegalovirus (CMV) immediate early promoter. The vector confers resistance to hygromycin B. Cells (in 0.4 mL) and DNA (10 to 20 μg) were transfected by electroporation using a BTX Electro cell manipulator model 600 using a 2 mm gap cell, 100V, 2500 μF capacitance and 72 ohm resistance. […] Expression of PGP is measured by the polarization of vinblastine (0.1 μM) transport in Transwells™.
LLC-PK1 cell based transport studies are conducted in 24 well Transwells™ (Corning Costar, Catalog number 3415). […] Transport is measured under sink conditions in both the apical to basolateral (A to B) and basolateral to apical (B to A) directions. […] Quantitation of the amount of compound transported is by liquid scintillation counting (vinblastine) or HPLC with UV or mass spectrometric detection.
Functional expression of rhesus monkey PGP is measured by the polarization of transport of vinblastine.

## CC[C@]1(O)C[C@@H]2CN(CCc3c([nH]c4ccccc34)[C@@](C(=O)OC)(c3cc4c(cc3OC)N(C)[C@H]3[C@@](O)(C(=O)OC)[C@H](OC(C)=O)[C@]5(CC)C=CCN6CC[C@]43[C@@H]65)C2)C1 [vinblastine]
  B to A/A to B ratio (polarization of transport): much higher ratio
